{"source": "ChEMBL document CHEMBL1131595", "about": "“Chemoprotective properties of phenylpropenoids, bis(benzylidene)cycloalkanones, and related Michael reaction acceptors: correlation of potencies as phase 2 enzyme inducers and radical scavengers” (J Med Chem, 1998)", "data": [{"test": "Scavenging activity of compound (superoxide radicals generated by the oxidation of xanthine and xanthine oxidase),expressed as the percent quenching of luminescence of lucigenin at 50 nM concentration", "units": {"Free radical scavenging": "%"}, "values": [{"smiles": "COc1ccccc1/C=C1\\CCC/C(=C\\c2ccccc2OC)C1=O", "Free radical scavenging": 19}, {"smiles": "O=C1/C(=C/c2ccccc2)CC/C1=C\\c1ccccc1", "Free radical scavenging": 10}, {"smiles": "O=C1/C(=C/c2ccccc2)CCCC/C1=C\\c1ccccc1", "Free radical scavenging": 11}, {"smiles": "O=C1/C(=C/c2ccccc2O)CC/C1=C\\c1ccccc1O", "Free radical scavenging": 70}, {"smiles": "COc1cc(/C=C2\\CCC/C(=C\\c3ccc(O)c(OC)c3)C2=O)ccc1O", "Free radical scavenging": 30}, {"smiles": "O=C1/C(=C/c2ccccc2)CCC/C1=C\\c1ccccc1", "Free radical scavenging": 11}, {"smiles": "O=C1/C(=C/c2ccccc2O)CCC/C1=C\\c1ccccc1O", "Free radical scavenging": 42}]}]}
